{"source": "patent US6495131B1", "about": "“Interleukin-3 gene therapy for cancer” (priority 1998, dated 2002)", "data": [{"tested_on": "ROS-1 osteosarcoma", "experiment": "Tumor growth of ROS-1 osteosarcoma in hindlimb after ILP or intra-tumoral injection", "assay_type": "in vivo", "conditions": "ROS-1, ILP 15 minutes, 1.10^9 iu vector plus 50 μg TNFα, 40 μg melphalan or 200 μg doxorubicin per rat", "method": "The rapidly growing ROS-1 osteosarcoma originated spontaneously in the tibia of a Wag/Rij rat (Barendsen et al. (1987)). The ROS-1 was implanted subcutaneously in the flank of donor Wag/Rij rats and passaged serially. The ROS-1 has a tumor doubling time of 5 days.\nFragments of the BN175 or ROS-1 (osteo)sarcoma were subcutaneously implanted into the right hindlimb of the experimental animals just above the ankle. The tumor size was measured regularly by caliper measurement in two dimensions. When the tumor reached a volume of 180-524 mm^3 (diameter between 7 and 10 mm) an isolated limb perfusion (ILP) with the recombinant adenoviral vector was performed. As a control, tumor bearing rats underwent ILP without the addition of said recombinant adenoviral vectors (termed sham ILP). An other group of tumor bearing rats underwent a direct intra-tumor injection with said recombinant adenoviral vector. The tumor volume was between 180-524 mm^3). After ILP or direct intra-tumor injection the tumor size was measured every (mon-fri)day.\nSurgical procedures were performed under Hypnorm anaesthesia. […] After an incision parallel to the inguinal ligament the femoral and vein were approached and cannulated with silastic tubing (0.30 mm ID, 0.64 mm OD; 0.64 mm, 1.19 OD, respectively, Degania Silicone, Degania Bet, Israel). Collaterals were temporarily occluded by the application of a tourniquet around the groin, which was fixed to the inguinal ligament. An oxygenation reservoir and a roller pump (Masterflex) were included in the vascularly isolated circuit, which was, initially, perfused with haemaccel (Behring Pharma, Amsterdam, The Netherlands) for 3 minutes at a flow speed of 2 ml/min to wash out the blood. After the first wash out step, recirculation was performed with recombinant adenoviruses (50 μl-1 ml, containing approximately 10^9 infectious units (i.u.)) dissolved in 2.5-3.5 ml Haemaccel at the same flow rate for a time period ranging from 5 to 30 minutes. Followed by a second perfusion step of 5 minutes to wash out the non-bound virus with Haemaccel. […]", "values": [{"compound": "COc1cccc2c1C(=O)c1c(O)c3c(c(O)c1C2=O)C[C@@](O)(C(=O)CO)C[C@@H]3O[C@H]1C[C@H](N)[C@H](O)[C@H](C)O1", "note": "[doxorubicin]", "effect of addition to the IG.Ad.CMV.rIL-3 perfusion on the antitumor response": "does not influence the antitumor response"}, {"compound": "N[C@@H](Cc1ccc(N(CCCl)CCCl)cc1)C(=O)O", "note": "[melphalan]", "effect of addition to the IG.Ad.CMV.rIL-3 perfusion on the antitumor response": "does not influence the antitumor response"}, {"compound": "TNFα", "effect of addition to the IG.Ad.CMV.rIL-3 perfusion on the antitumor response": "does not influence the antitumor response"}]}]}
